Laboratory results: US20240116985A1, “STAPLED PEPTIDES AND METHODS THEREOF” (priority 2020, published 2024)
Read-outs that look alike come from different tables or passages of the source.

Assays:
[1] = target: T1, beta-catenin/TCF4 engagement (Homo sapiens, UniProt P35222); assay: Nano-BRET target engagement assay (B-cat-Halo & TCF4-Luc in HEK293 cells); assay type: cell-based
T1 construct: expressed in transfected cells; host or cells: HEK293
T1 sequence (P35222 1-781): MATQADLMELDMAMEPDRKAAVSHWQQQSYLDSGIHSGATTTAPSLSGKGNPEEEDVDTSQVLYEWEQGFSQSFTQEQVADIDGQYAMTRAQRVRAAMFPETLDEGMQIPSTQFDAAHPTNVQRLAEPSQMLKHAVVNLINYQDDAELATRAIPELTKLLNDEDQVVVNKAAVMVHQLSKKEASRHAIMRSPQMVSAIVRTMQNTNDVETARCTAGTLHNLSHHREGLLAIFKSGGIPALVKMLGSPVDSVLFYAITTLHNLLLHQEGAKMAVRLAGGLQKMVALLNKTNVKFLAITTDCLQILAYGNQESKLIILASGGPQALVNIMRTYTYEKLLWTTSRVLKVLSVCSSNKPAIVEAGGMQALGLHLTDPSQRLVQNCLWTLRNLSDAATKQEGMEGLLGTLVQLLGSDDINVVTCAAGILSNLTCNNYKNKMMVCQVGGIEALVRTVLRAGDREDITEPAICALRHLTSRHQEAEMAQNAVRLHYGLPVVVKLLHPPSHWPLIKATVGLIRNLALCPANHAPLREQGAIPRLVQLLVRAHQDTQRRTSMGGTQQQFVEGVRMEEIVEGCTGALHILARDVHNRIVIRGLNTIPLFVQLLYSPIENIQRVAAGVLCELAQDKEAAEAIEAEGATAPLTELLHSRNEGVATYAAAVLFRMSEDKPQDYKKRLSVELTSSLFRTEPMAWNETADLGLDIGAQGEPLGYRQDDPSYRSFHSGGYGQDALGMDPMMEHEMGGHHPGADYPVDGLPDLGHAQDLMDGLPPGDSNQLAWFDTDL

[2] = target: T2, full-length beta-Catenin (Uniprot ID P35222) (Homo sapiens, UniProt P35222); assay: Fluorescence polarization IC50 (beta-catenin / 5FAM-TCF4 10-53 competition); assay type: binding; details: fluorescence polarization
T2 construct: 10 nM full-length beta-Catenin (Uniprot ID P35222)
T2 sequence (P35222 1-781): T1 sequence (P35222 1-781)

[3] = absolute IC50, read-out: NanoBRET Abs IC50

SMILES	IC50 [1, 3]	IC50 ([2]; read-out: beta-Catenin FP IC50)	IC50 ([1]; read-out: NanoBRET Abs IC50)	IC50 ([1]; NanoBRET Abs IC50 (uM))	IC50 ([2]; beta-Catenin FP IC50 (nM))
CC(=O)N1CCC[C@]12CC=CCCCC1(CCCC=CCCCOC(=O)N3CC[C@@](C(=O)N[C@@H](Cc4ccccc4)C(=O)N[C@@H](Cc4csc5ccccc45)C(=O)N[C@@H](CCC(N)=O)C(N)=O)(C3)NC(=O)[C@H](CC(C)C)NC(=O)[C@H](Cc3ccccc3)NC(=O)[C@H](C)NC(=O)[C@H](CCCCNC(C)C)NC(=O)[C@H](Cc3cccc(C(=O)O)c3)NC(=O)[C@H](CC(=O)O)NC1=O)NC(=O)[C@H](CC1CCCCC1)NC(=O)[C@H](CC(N)=O)NC2=O (stereo partly drawn) [I-2340, Ac-PL3-Asn-Cha-B5-Asp-3COOHF-iPrLys-Ala-Phe-Leu-PyrS2-Phe-BztA-Gln-NH2]	> 20 µM	5 nM	–	–	–
CC(=O)N1CCC[C@]12CC=CCCCC1(CCCC=CCCCOC(=O)N3CC[C@@](C(=O)N[C@@H](Cc4ccsc4)C(=O)N[C@@H](Cc4csc5ccccc45)C(=O)N[C@@H](CCC(N)=O)C(N)=O)(C3)NC(=O)[C@H](CCC(=O)N3CCN(c4ccncc4)CC3)NC(=O)[C@H](Cc3ccccc3)NC(=O)[C@H](C)NC(=O)[C@H](C)NC(=O)[C@H](CN(CC(=O)O)CC(F)(F)F)NC(=O)[C@H](CC(=O)O)NC1=O)NC(=O)[C@H](CC(C)(C)C)NC(=O)[C@H](CC(=O)O)NC2=O (stereo partly drawn) [I-1938, Ac-PL3-Asp-Npg-B5-Asp-TfeGA-Ala-Ala-Phe-[4PyPip]GlnR-PyrS2-3Thi-BztA-Gln-NH2]	–	–	–	30 µM	8 nM
CC(=O)N1CCC[C@]12CC=CCCCC1(CCCC=CCCCOC(=O)N3CC[C@@](C(=O)N[C@@H](Cc4ccccc4C(F)(F)F)C(=O)N[C@@H](Cc4csc5ccccc45)C(=O)N[C@@H](CO)C(N)=O)(C3)NC(=O)[C@H](CC(C)C)NC(=O)[C@H](Cc3ccccc3)NC(=O)[C@H](C)NC(=O)[C@H](C)NC(=O)[C@H](Cn3cc(CC(=O)O)nn3)NC(=O)[C@H](CC(=O)O)NC1=O)NC(=O)[C@H](CC(C)(C)C)NC(=O)[C@H](CC(=O)O)NC2=O (stereo partly drawn) [I-2373, Ac-PL3-Asp-Npg-B5-Asp-[CH2CO2H]TriAzDap-Ala-Ala-Phe-Leu-PyrS2-2F3MeF-BztA-Ser-NH2]	4 µM	5 nM	–	–	–
CC(=O)N1CCC[C@]12CC=CCCCC1(CCCC=CCCCOC(=O)N3CC[C@@](C(=O)N[C@@H](Cc4ccccc4)C(=O)N[C@@H](Cc4csc5ccccc45)C(=O)N[C@@H](C)C(N)=O)(C3)NC(=O)[C@H](CC(N)=O)NC(=O)[C@H](Cc3ccccc3)NC(=O)[C@H](C)NC(=O)[C@H](CCCCNC(C)C)NC(=O)[C@H](CCC(N)=O)NC(=O)[C@H](CC(=O)O)NC1=O)NC(=O)[C@H](CC1CCCCC1)NC(=O)[C@H](CC(N)=O)NC2=O (stereo partly drawn) [I-2065, Ac-PL3-Asn-Cha-B5-Asp-Gln-iPrLys-Ala-Phe-Asn-PyrS2-Phe-BztA-Ala-NH2]	–	144 nM	> 20 µM	–	–
CC(=O)N1CCC[C@]12CC=CCCCC1(CCCC=CCCCOC(=O)N3CC[C@@](C(=O)N[C@@H](Cc4ccccc4C(F)(F)F)C(=O)N[C@@H](Cc4csc5ccccc45)C(=O)N[C@@H](CCC(N)=O)C(N)=O)(C3)NC(=O)[C@H](CC(C)C)NC(=O)[C@H](Cc3ccccc3)NC(=O)[C@H](C)NC(=O)[C@H](C)NC(=O)[C@H](CN(CC(=O)O)CC(F)(F)F)NC(=O)[C@H](CC(=O)O)NC1=O)NC(=O)[C@H](CC(C)(C)C)NC(=O)[C@H](CC(=O)O)NC2=O (stereo partly drawn) [I-1704, Ac-PL3-Asp-Npg-B5-Asp-TfeGA-Ala-Ala-Phe-Leu-PyrS2-2F3MeF-BztA-Gln-NH2]	5.3 µM	37 nM	–	–	–
CC(=O)N[C@]1(C)CCCCCCCCC2(CCCCCCCCOC(=O)N3CC[C@@](C(=O)N[C@@H](Cc4ccccc4C(F)(F)F)C(=O)N[C@@H](Cc4csc5ccccc45)C(=O)N[C@@H](CCC(N)=O)C(N)=O)(C3)NC(=O)[C@H](CC(C)C)NC(=O)[C@H](Cc3ccccc3)NC(=O)[C@H](C)NC(=O)[C@H](C)NC(=O)[C@H](Cc3cccc(C(=O)O)c3)NC(=O)[C@H](CC(=O)O)NC2=O)NC(=O)[C@H](CC(C)(C)C)NC(=O)[C@H](CC(=O)O)NC1=O (stereo partly drawn) [I-2571, Ac-R5-Asp-Npg-B5-Asp-3COOHF-Ala-Ala-Phe-Leu-PyrS2-2F3MeF-BztA-Gln-NH2]	–	42 nM	24 µM	–	–
CC(=O)N1CCC[C@]12CC=CCCCC1(CCCC=CCCCCCC[C@@](C)(C(=O)N[C@@H](Cc3ccccc3)C(=O)N[C@@H](Cc3csc4ccccc34)C(=O)N[C@@H](CCC(N)=O)C(N)=O)NC(=O)[C@H](CCC(N)=O)NC(=O)[C@H](Cc3ccccc3)NC(=O)[C@H](C)NC(=O)[C@H](C)NC(=O)[C@H](CCC(=O)O)NC(=O)[C@H](CC(=O)O)NC1=O)NC(=O)[C@H](CC(N)=O)NC(=O)[C@H](CC(=O)O)NC2=O (stereo partly drawn) [I-1531, Ac-PL3-Asp-Asn-B5-Asp-Glu-Ala-Ala-Phe-Gln-S8-Phe-BztA-Gln-NH2]	> 20 µM	84 nM	–	–	–

Second part, led by results:

IC50 [1, 3]	IC50 ([2]; read-out: beta-Catenin FP IC50)	IC50 ([1]; read-out: NanoBRET Abs IC50)	SMILES	IC50 ([1]; NanoBRET Abs IC50 (uM))	IC50 ([2]; beta-Catenin FP IC50 (nM))
2.8 µM	120 nM	–	CC(=O)N1CCC[C@]12CC=CCCCC1(CCCC=CCCCOC(=O)N3CC[C@@](C(=O)N[C@@H](Cc4ccsc4)C(=O)N[C@@H](Cc4csc5ccccc45)C(=O)N[C@@H](CC(N)=O)C(=O)N[C@@H](C)C(=O)N[C@@H](CC(C)C)C(=O)N[C@@H](CC(C)C)C(N)=O)(C3)NC(=O)[C@H](CC(C)C)NC(=O)[C@H](Cc3ccccc3)NC(=O)[C@H](C)NC(=O)[C@H](C)NC(=O)[C@H](Cc3cccc(C(=O)O)c3)NC(=O)[C@H](CC(=O)O)NC1=O)NC(=O)[C@H](CC(C)(C)C)NC(=O)[C@H](CC(=O)O)NC2=O (stereo partly drawn) [I-2278, Ac-PL3-Asp-Npg-B5-Asp-3COOHF-Ala-Ala-Phe-Leu-PyrS2-3Thi-BztA-Asn-Ala-Leu-Leu-NH2]	–	–
37.7 µM	52 nM	–	CC(=O)N1CCC[C@]12CC=CCCCC1(CCCC=CCCCOC(=O)N3CC[C@@](C(=O)N[C@@H](Cc4ccsc4)C(=O)N[C@@H](Cc4csc5ccccc45)C(=O)N[C@@H](CCC(N)=O)C(N)=O)(C3)NC(=O)[C@H](CCO)NC(=O)[C@H](Cc3ccccc3)NC(=O)[C@H](C)NC(=O)[C@H](C)NC(=O)[C@H](Cc3c[nH]cn3)NC(=O)[C@H](CC(=O)O)NC1=O)NC(=O)[C@H](CC(C)(C)C)NC(=O)[C@H](CC(=O)O)NC2=O (stereo partly drawn) [I-1794, Ac-PL3-Asp-Npg-B5-Asp-His-Ala-Ala-Phe-Hse-PyrS2-3Thi-BztA-Gln-NH2]	–	–
> 20 µM	12 nM	–	CC(=O)N1CCC[C@]12CC=CCCCC1(CCCC=CCCCOC(=O)N3CC[C@@](C(=O)N[C@@H](Cc4ccsc4)C(=O)N[C@@H](Cc4csc5ccccc45)C(=O)N[C@@H](CCO)C(N)=O)(C3)NC(=O)[C@H](CC(C)C)NC(=O)[C@H](Cc3ccccc3)NC(=O)[C@H](C)NC(=O)[C@H](C)NC(=O)[C@H](CC(=O)O)NC(=O)[C@H](CC(=O)O)NC1=O)NC(=O)[C@H](Cc1ccc(O)cc1)NC(=O)[C@H](CC(=O)O)NC2=O (stereo partly drawn) [I-1512, Ac-PL3-Asp-Tyr-B5-Asp-Asp-Ala-Ala-Phe-Leu-PyrS2-3Thi-BztA-Hse-NH2]	–	–
–	28 nM	5.1 µM	CC(=O)N1CCC[C@]12CC=CCCCC1(CCCC=CCCCOC(=O)N3CC[C@@](C(=O)N[C@@H](Cc4ccccc4Cl)C(=O)N[C@@H](Cc4csc5ccccc45)C(=O)N[C@@H](CO)C(N)=O)(C3)NC(=O)[C@H](CC(C)C)NC(=O)[C@H](Cc3ccccc3)NC(=O)[C@H](C)NC(=O)C(C)(C)NC(=O)[C@H](Cc3cccc(C(=O)O)c3)NC(=O)[C@H](CC(=O)O)NC1=O)NC(=O)[C@H](CC(C)(C)C)NC(=O)[C@H](CC(=O)O)NC2=O (stereo partly drawn) [I-1899, Ac-PL3-Asp-Npg-B5-Asp-3COOHF-Aib-Ala-Phe-Leu-PyrS2-2C1F-BztA-Ser-NH2]	–	–
–	26 nM	6.5 µM	CC(=O)N1CCC[C@]12CC=CCCCC1(CCCC=CCCCOC(=O)N3CC[C@@](C(=O)N[C@@H](Cc4ccsc4)C(=O)N[C@@H](Cc4csc5ccccc45)C(=O)N[C@@H](CCC(N)=O)C(N)=O)(C3)NC(=O)[C@H](CC(C)C)NC(=O)[C@H](Cc3ccccc3)NC(=O)[C@H](C)NC(=O)[C@H](C)NC(=O)[C@H](CNc3ccc(N)cc3C(=O)O)NC(=O)[C@H](CC(=O)O)NC1=O)NC(=O)[C@H](CC(C)(C)C)NC(=O)[C@H](CC(=O)O)NC2=O (stereo partly drawn) [I-2087, Ac-PL3-Asp-Npg-B5-Asp-[2COOH4NH2Ph]Dap-Ala-Ala-Phe-Leu-PyrS2-3Thi-BztA-Gln-NH2]	–	–
–	41 nM	3 µM	CC(=O)N1CCC[C@]12CC=CCCCC1(CCCC=CCCCOC(=O)N3CC[C@@](C(=O)N[C@@H](Cc4ccccc4Cl)C(=O)N[C@@H](Cc4csc5ccccc45)C(=O)N[C@@H](CCS(C)(=O)=O)C(N)=O)(C3)NC(=O)[C@H](CC(C)C)NC(=O)[C@H](Cc3ccccc3)NC(=O)[C@H](C)NC(=O)[C@H](C)NC(=O)[C@H](Cc3cccc(C(=O)O)c3)NC(=O)[C@H](CC(=O)O)NC1=O)NC(=O)[C@H](CC(C)(C)C)NC(=O)[C@H](CC(=O)O)NC2=O (stereo partly drawn) [I-2062, Ac-PL3-Asp-Npg-B5-Asp-3COOHF-Ala-Ala-Phe-Leu-PyrS2-2C1F-BztA-Met2O-NH2]	–	–
